From patent US20040219622A1, “Phosphine-containing formulations for chemiluminescent luciferase assays” (priority 2001, published 2004)

Tests used:
Assay type in all cases: biochemical
[1] = target: T1, firefly luciferase (Photinus pyralis, UniProt P08659); assay: Firefly luciferase reaction with TCEP concentration series (Example 1); conditions: for light output as % of the original signal: 96 mM TCEP
Protocol: A common firefly luciferase reaction mix was prepared by combining stock solutions of Tris/Mg buffer, D-luciferin, and ATP. A 900 μl aliquot of this mix consisted of 720 μl of 0.1 M Tris, 10 mM MgCl2, pH 8.0, 150 μl of 10 mM D-luciferin in 0.1 M Tris, pH 8.0, and 30 μl of 50 mM ATP in 0.1 M Tris, pH 8.0. A series of buffered TCEP preparations were prepared from a neutral pH, 0.5 M TCEP solution (Pierce Chemical Company Product No. 77720) by dilutions with 0.1 M Tris, pH 8.0, as necessary for a TCEP concentration series of 300, 150, 75, 37.5, 18.75, 9.38, 4.69, and 0 mM TCEP. 450 μl of each TCEP concentration were then added separately to 900 μl aliquots of the previously prepared mixture, followed by a final addition of 50 μl of 0.1 M Tris, pH 8.0, to each solution for a final volume of 1.4 ml. The final TCEP concentrations were, therefore, approximately 96, 48, 24, 12, 6, 3, 1.5, and 0 mM and the final Mg, luciferin, and ATP concentrations were 5.14, 1.07, and 1.07 mM, respectively.
Firefly luciferase was diluted from a stock solution (2 μl of 14.7 mg/ml) with 0.1 M Tris, pH 8.0, containing 2 mg/ml bovine serum albumin. 10 μl aliquots containing 181 pg of enzyme were aliquoted into the wells of an opaque white 96-well microplate, after which 125 μl of the reaction mixtures with varying TCEP concentrations were added. The plate was immediately placed into an Orion Luminometer (Berthold Detection Systems), and light output from the plate wells was measured for 15 sequential plate reading cycles, each cycle allowing the wells of the plate to be read with a time interval of approximately 2 minutes.

[2] = target: T2, Renilla luciferase (Renilla reniformis, UniProt P27652); assay: Renilla luciferase assay with or without TCEP (Example 6); conditions: 33.3 μl of 0.5 M TCEP added to 466.7 μl coelenterazine assay mixture
T2 construct: purchased Chemicon 4400
T2 sequence (P27652 1-311): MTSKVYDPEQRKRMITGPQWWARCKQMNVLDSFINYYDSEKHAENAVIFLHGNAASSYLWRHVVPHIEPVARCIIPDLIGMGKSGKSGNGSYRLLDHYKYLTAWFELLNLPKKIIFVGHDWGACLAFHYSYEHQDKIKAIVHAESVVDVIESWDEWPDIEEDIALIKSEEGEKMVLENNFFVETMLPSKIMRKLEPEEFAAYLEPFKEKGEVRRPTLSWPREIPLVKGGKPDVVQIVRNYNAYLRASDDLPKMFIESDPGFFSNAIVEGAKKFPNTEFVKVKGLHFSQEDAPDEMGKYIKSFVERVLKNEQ
Protocol: In order to ascertain whether or not TCEP would interfere with a Renilla assay, an experiment was conducted utilizing a Renilla assay mixture, with or without TCEP supplementation. A Renilla assay mixture was prepared by combining 480 μl of 0.1 M Tris, 10 mM MgCl2, 1 mM EDTA, pH 8.0, with 437.7 μl of 0.1 M Tris, pH 8.0, and 16.7 μl of a coelenterazine stock solution (59 μM coelenterazine in denatured ethanol prepared from Molecular Probes Catalog number C-6777). This solution was split into 2 aliquots of 466.7 μl, and one aliquot received 33.3 μl of 0.5 M TCEP and the other aliquot received 33.3 μl 0.1 M Tris, pH 8.0.
Renilla luciferase purchased from Chemicon (Catalog number 4400) was diluted with 1 ml phosphate-buffered saline (10 mM sodium phosphate, 150 mM NaCl, pH 7.2) and stored frozen at −80° C. in 10 μl aliquots, each aliquot containing 100 ng enzyme. An aliquot was removed and diluted with 0.1 M Tris, pH 8.0, for a concentration series of 166, 55, 18.5, and 0 pg/10 μl. 10 μl of each enzyme concentration were pipetted in duplicate to the wells of a white opaque 96-well microplate, and 100 μl of either of the TCEP containing solution or the solution without TCEP was pipetted into the wells to initiate the reaction. The plate was immediately placed into an Orion Luminometer, and light output from the wells was measured with sequential plate reading cycles.

[3] = target: T1, firefly luciferase; assay: TCEP-mediated firefly luciferase reaction with DTT series (Example 5); conditions: 33.5 mM TCEP; for signal decrease from first reading cycle to 11 minutes 34 seconds later: no added DTT
Protocol: A common solution was prepared by combining stock solutions of Tris/Mg buffer, D-luciferin, TCEP, and ATP. This solution was prepared by combining 12 ml of 0.1 M Tris, 10 mM MgCl2, pH 8.0, 187.5 μl of 10 mM D-luciferin in 0.1 M Tris, pH 8.0, […] 0.5 M TCEP, and 30 μl of an ATP stock solution (50 mM ATP in 0.1 M Tris, pH 8.0) and 1.02 ml of 0.1 M Tris, pH 8.0. A 150 μl aliquot of this solution was added to 100 μl of 50 mM DTT stock solution (50 mM DTT in 0.1 M Tris, pH 8.0) for a final DTT concentration of 20 mM, and another 1.35 ml aliquot of the solution received 0.9 ml 0.1 M Tris, pH 8.0. The 20 mM DTT reaction solution was further diluted with the second aliquot to give a final DTT concentration series of […], and 0 mM DTT. In this series of reaction mixtures with varying concentrations of DTT, the final luciferin, magnesium, and TCEP concentrations were 75.5 μM luciferin, 4.8 mM magnesium, and 33.5 mM TCEP and 238 μM ATP. Other reaction mixtures with varying DTT concentrations were also prepared in like fashion, but with a final ATP concentration held constant at either 59.5, 29.75 or 14.875 μM, which was achieved by further dilution of the ATP solution with 0.1 M Tris, pH 8.
Firefly luciferase was diluted from a stock solution (2 μl of 14.7 mg/ml) with 0.1 M Tris, pH 8.0, containing 2 mg/ml bovine serum albumin. 10 μl aliquots containing 181 pg of enzyme were aliquoted into the wells of an opaque white 96-well microplate, after which 100 μl of the reaction mixtures with varying DTT concentrations were added. The plate was immediately placed into an Orion Luminometer, and light output from the wells was measured with sequential plate reading cycles, each cycle allowing the wells of the plate to be read with a time interval of approximately 2.25 minutes.
FIGS. 10 and 11 illustrate the results of this experiment. FIG. 10 illustrates the results obtained where the final ATP concentration of the reaction mixture was 238 μM, and FIG. 11 illustrates the results obtained where the final ATP concentration of the reaction mixture was 30 μM. Both graphs relate the observed RLU at each reading cycle expressed as a relative percentage of the signal obtained with the well receiving no DTT supplementation at the first reading cycle, with this signal being assigned 100%.

[4] = target: T1, firefly luciferase; assay: Firefly luciferase reaction with TCEP series plus 5 mM DTT (Example 2)
Protocol: In this experiment, final TCEP concentration was varied from 0-96 mM in the reaction mixture, with the reaction mixture also containing a final concentration of DTT of 5 mM. The conditions for this experiment were identical to that shown in Example 1, but with substitution of the final addition of 50 μl of 0.1 M Tris, pH 8.0, to each solution with a final addition of 50 μl of 50 mM DTT stock solution prepared in 0.1 M Tris, pH 8.0. This experiment was also conducted simultaneously and in the same microwell plate as the experiment of Example 1.

[5] = target: T1, firefly luciferase; assay: Firefly luciferase reaction with additives TCEP, CoA, DTT alone or combined (Example 3); conditions: CoA 0.5 mM, DTT 5 mM, light output then rapidly decreased
Protocol: A common firefly luciferase reaction mix was prepared by combining stock solutions of Tris/Mg buffer, D-luciferin, and ATP. A 600 μl aliquot of this mix consisted of 480 μl of 0.1 M Tris, 10 mM MgCl2, pH 8.0, 85 μl of 10 mM D-luciferin in 0.1 M Tris, pH 8.0, and 17 μl of 50 mM ATP (1889485) in 0.1 M Tris, pH 8.0. Separate aliquots of the reaction mixture were then supplemented with various combinations of additives selected from a 0.5 M TCEP solution, a stock solution of CoA (5 mM CoA in 0.1 M Tris, pH 8.0), or a stock solution of DTT (50 mM DTT in 0.1 M Tris, pH 8.0) and then brought to a final volume of 1 ml with 0.1 M Tris, pH 8.0. In such fashion, the following solutions were obtained: a solution with no additives (None), TCEP (T), TCEP plus CoA (TC), TCEP plus DTT (TD), TCEP plus CoA plus DTT (TCD), CoA (C), CoA plus DTT (CD), and DTT (D or DTT). Where used, the final concentrations of TCEP, CoA, and DTT were 50, 0.5, and 5 mM, respectively. […]
Firefly luciferase was diluted from a stock solution (2 μl of 14.7 mg/ml) with 0.1 M Tris, pH 8.0, containing 2 mg/ml bovine serum albumin. […] The plate was immediately placed into an Orion Luminometer, and light output from the plate wells was measured with sequential plate reading cycles over a one hour time frame, each cycle allowing the wells of the plate to be read with a time interval of approximately 140 seconds.

[6] = target: T1, firefly luciferase; assay: ATP assay with TCEP in firefly luciferin-luciferase reaction (Example 4); conditions: 5 mM DTT; 33.3 mM TCEP; 0-500 μM ATP
Protocol: A common solution was prepared by combining stock solutions of Tris/Mg buffer, D-luciferin, and TCEP. A 2.25 ml aliquot of this solution contained 1.2 ml of 0.1 M Tris, 10 mM MgCl2, pH 8.0, 18.75 μl of 10 mM D-luciferin in 0.1 M Tris, pH 8.0, 165 μl of 0.5 M TCEP, with the remaining volume being 0.1 M Tris, pH 8.0. 0.5 ml of this mixture was removed and to it was added 11 μl of an ATP stock solution (50 mM ATP in 0.1 M Tris, pH 8.0) and 39 μl of 0.1 M Tris, pH 8.0; the remaining 1.75 ml of mixture received 175 μl of 0.1 M Tris, pH 8.0. The ATP-containing aliquot was then serially diluted with the non-ATP-containing mixture to yield a final ATP concentration series of 500, 250, 125, 62.5, 31.25, 15.625, and 0 μM. The non-ATP-containing mixture served as the control for zero ATP concentration. In this series of reaction mixtures with varying concentrations of ATP, the final luciferin, magnesium, and TCEP concentrations were 75.8 μM luciferin, 4.8 mM magnesium, and 33.3 mM TCEP. […]
Firefly luciferase was diluted from a stock solution (2 μl of 14.7 mg/ml) with 0.1 M Tris, pH 8.0 containing 2 mg/ml bovine serum albumin. […] The plate was immediately placed into an Orion Luminometer and light output from the wells was measured with sequential plate reading cycles, each cycle allowing the wells of the plate to be read with a time interval of approximately 2.25 minutes. […]

T1 sequence (P08659 whole entry): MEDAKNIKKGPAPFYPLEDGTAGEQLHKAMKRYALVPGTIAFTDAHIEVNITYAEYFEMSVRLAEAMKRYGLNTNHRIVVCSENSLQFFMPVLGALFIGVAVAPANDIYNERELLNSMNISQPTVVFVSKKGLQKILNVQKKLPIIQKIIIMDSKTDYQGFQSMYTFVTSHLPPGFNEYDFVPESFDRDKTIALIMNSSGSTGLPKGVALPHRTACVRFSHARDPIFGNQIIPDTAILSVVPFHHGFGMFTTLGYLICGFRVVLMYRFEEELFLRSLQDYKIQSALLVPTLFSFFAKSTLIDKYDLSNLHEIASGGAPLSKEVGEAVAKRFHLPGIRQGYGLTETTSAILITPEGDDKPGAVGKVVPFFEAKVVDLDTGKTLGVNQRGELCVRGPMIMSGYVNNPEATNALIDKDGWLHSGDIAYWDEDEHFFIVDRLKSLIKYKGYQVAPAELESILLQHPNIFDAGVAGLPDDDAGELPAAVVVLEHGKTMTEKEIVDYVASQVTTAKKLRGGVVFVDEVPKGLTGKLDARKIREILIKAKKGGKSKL

Compound | light output as % of the original signal ([1]; fourth reading cycle) [%] | light output as % of the original signal ([1]; last reading cycle) [%] | initially observed light output compared to the control reaction (no TCEP) ([1]; TCEP 1.5, 3 and 6 mM) | originally observed signal retained at the last reading cycle ([1]; TCEP 1.5-96 mM, 15th reading cycle, about 2 min per cycle, 181 pg enzyme, control lost >90%) [%] | reduction of background (no added enzyme) compared to absence of TCEP [2] [%] | signal decrease from first reading cycle to 11 minutes 34 seconds later ([3]; 30 μM ATP) | signal decrease from first reading cycle to 11 minutes 34 seconds later ([3]; 250 μM ATP) | RLU at the fifteenth reading cycle compared to control with DTT but without TCEP ([4]; 1.5-24 mM TCEP + 5 mM DTT) | initial RLU compared to the control reaction (DTT without TCEP) ([4]; 1.5 or 3 mM TCEP, 5 mM DTT) | retention of originally observed light output at last reading cycle compared to control ([4]; all TCEP concentrations (1.5-96 mM), 5 mM DTT) | initial light output compared to the no addition control [5] | increase of initial RLU during the first cycle vs no DTT ([3]; 10 mM DTT, 30 μM ATP) | increase of initial RLU during the first cycle vs no DTT ([3]; 20 mM DTT, 238 μM ATP) | less light output after 11.5 minutes compared to the initial reading ([3]; 20 mM DTT, 250 μM ATP) [%] | RLUs on inclusion of DTT in the TCEP reaction mixture [6]
O=C(O)CCP(CCC(=O)O)CCC(=O)O [TCEP, Tris(2-carboxyethyl) phosphine] | 49 | 32 | significantly higher | 32 to 78 | 50 | about 6% | about 6% | greater RLU | greater | greater retention |  |  |  |  | 
CC(C)(COP(=O)(O)OP(=O)(O)OC[C@H]1O[C@@H](n2cnc3c(N)ncnc32)[C@H](O)[C@@H]1OP(=O)(O)O)[C@@H](O)C(=O)NCCC(=O)NCCS [CoA, Coenzyme A] |  |  |  |  |  |  |  |  |  |  | increased |  |  |  | 
O[C@H](CS)[C@H](O)CS (racemic) [DTT, dithiothreitol] |  |  |  |  |  |  |  |  |  |  | increased | about 8% | about 34% | 8.5 | elevated
